Measurements published in PubChem BioAssay (NCI).
Several values for one entry are separate records, joined by “and”; a condition that tells them apart may be missing. Equal entries are not always repeated.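 How tested: cells in 96-well plates exposed to compound for 48 hours at five concentrations. GI50 is the concentration that inhibits growth by half. At the TGI there is no net growth.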

What was measured:
Assay in all cases: NCI anticancer screen, dose series, 48 h
[1] = test system: HOP-62 NSCLC
[2] = test system: 786-0 renal
[3] = test system: SR leukemia
[4] = test system: LOX IMVI melanoma
[5] = test system: OVCAR-8 ovarian
[6] = test system: CCRF-CEM leukemia
[7] = test system: MOLT-4 leukemia
[8] = test system: KM12 colon
[9] = test system: COLO 205 colon
[10] = test system: HCT-15 colon

SMILES	GI50 [1]	TGI [1]	GI50 [2]	TGI [2]	GI50 [3]	TGI [3]	GI50 [4]	TGI [4]	GI50 [5]	TGI [5]	GI50 [6]	TGI [6]	GI50 [7]	TGI [7]	GI50 [8]	TGI [8]	GI50 [9]	TGI [9]	GI50 [10]	TGI [10]
Cc1nn(-c2ccccc2)c2nc(C)n(-c3ccc(Br)cc3)c(=O)c12	0.678 µM	> 100 µM	0.542 µM	> 100 µM	0.439 µM	> 100 µM	0.51 µM	> 100 µM	0.965 µM	> 100 µM	0.411 µM	> 100 µM	0.53 µM	> 100 µM	0.521 µM	> 100 µM	0.549 µM	18.4 µM	0.416 µM	> 100 µM
Cc1ccc(C2C3Cc4ccccc4C3=NN2c2ccc(S(=O)(=O)NC(=O)Nc3ccccc3)cc2)cc1 (centres undefined)	19.3 µM	63 µM	12.8 µM	36.5 µM	2.51 µM	16.1 µM	13.5 µM	27.9 µM	21.6 µM	> 100 µM	17.8 µM	46.6 µM	8.88 µM	34.4 µM	17.3 µM	43.2 µM	18.6 µM	53.3 µM	14.8 µM	32.2 µM
C=CCN1C(=O)[C@]2(SC1=S)[C@H](c1cccc(Cl)c1)CN(C)[C@]21C(=O)NC2C=CC(Cl)=C[C@H]21 (some centres undefined)	3.59 µM	16.2 µM	1.51 µM	3.48 µM	1.68 µM	4.48 µM	1.73 µM	3.95 µM	4.22 µM	17.3 µM	3.25 µM	11.6 µM	2.07 µM	6.82 µM	1.99 µM	6.35 µM	1.78 µM	4.35 µM	2.89 µM	13.1 µM
CCC(C)C(=O)OC1CCC=C2C=CC(C)C(CCC3CC(O)CC(=O)O3)C21 (centres undefined)		> 100 µM		> 65.9 µM		> 51 µM		> 100 µM		> 100 µM		> 100 µM		> 100 µM		> 100 µM		32.4 µM		> 100 µM
CC(=N/NC(N)=S)/C(C)=N/NC(N)=S		> 100 µM		> 100 µM		> 100 µM		> 100 µM		> 100 µM		> 100 µM		> 100 µM		> 100 µM		> 100 µM		> 100 µM
CC(=O)/C=C/c1ccc(N(CCO)Cc2ccc(C(C)(C)C)cc2)cc1	104 µM	231 µM	51.3 µM	184 µM	39.1 µM	169 µM	28.3 µM	134 µM	62.9 µM	210 µM	49 µM	208 µM	30.1 µM	142 µM	39.6 µM	155 µM	29.3 µM	129 µM	27.8 µM	124 µM
c1ccc2c(c1)[nH]c1c3ccccc3sc21		> 100 µM		> 100 µM		> 100 µM		> 100 µM		> 100 µM		> 100 µM		> 100 µM		> 100 µM		> 100 µM		> 100 µM
COc1ccc2nc3ccccc3c(NCc3ccccc3)c2c1	2.62 µM	9.95 µM	1.8 µM	3.38 µM	1.38 µM	4.51 µM	1.61 µM	3.29 µM	2.76 µM	9.32 µM	2.8 µM	11.7 µM	2.76 µM	11.2 µM	3.49 µM	12.9 µM	1.54 µM	3.54 µM	1.83 µM	4.46 µM
CCOC(=O)CCn1cnc(N)n1		> 100 µM		> 100 µM		> 100 µM		> 100 µM		> 100 µM		> 100 µM		> 100 µM		> 100 µM		> 100 µM		> 100 µM
C1=C\CCCCN2CC[C@H]3[C@H](CCCC/C=C\CCCN4C[C@@H](CCCCC/1)C[C@@H]3C4)C2	15.7 µM	29.8 µM	12.5 µM	25.9 µM	1.85 µM	4.93 µM	4.3 µM	14.8 µM	10.8 µM	25.3 µM	3.64 µM	> 22.6 µM	3.67 µM	17.4 µM	9.05 µM	21.5 µM	2.25 µM	5.75 µM	2.22 µM	7.77 µM
Cc1cn(C2CC(O)C(COC(N)=O)O2)c(=O)[nH]c1=O (centres undefined)		> 100 µM		> 100 µM		> 100 µM		> 100 µM		> 100 µM		> 100 µM		> 100 µM		> 100 µM		> 100 µM		> 100 µM
C/C(=N\NC(=S)N1CCN(c2ccccn2)CC1)c1cccc2cccnc12		> 100 µM		> 100 µM		> 38.7 µM		> 100 µM		> 100 µM		> 42.8 µM		> 62.2 µM		> 100 µM		> 46.1 µM		> 100 µM
CCSCCCC(=O)O		> 100 µM		> 100 µM		> 100 µM		> 100 µM		> 100 µM		> 100 µM		> 100 µM		> 100 µM		> 100 µM		> 100 µM
COc1cc(/C=C/c2ccnc3ccccc23)cc(OC)c1OC	5.87 µM	37.7 µM and > 100 µM	4.42 µM	28.2 µM and 61.6 µM	0.755 µM		5.25 µM	29.3 µM and > 100 µM	4.17 µM	> 100 µM	3.64 µM		2.47 µM	13.4 µM and 26.2 µM	1.34 µM	15.9 µM and 11.1 µM	3.26 µM	7.36 µM and 15.1 µM	1.92 µM	> 100 µM and 70.1 µM
C/C=C(\C)C(=O)O[C@@H]1C=CC(=O)O[C@H]1CNC(=O)[C@H](C)O	26.4 µM	65.3 µM	23.6 µM	73.5 µM	6.78 µM	48.6 µM	15.9 µM	31.3 µM	30.5 µM	> 100 µM	6.1 µM	26.2 µM		5.35 µM	17.3 µM	36.3 µM	8.96 µM	27.2 µM	18.5 µM	45.4 µM
Cn1cc(-c2nc(-c3cn(C)c4ncccc34)cs2)c2ccccc21	2.01 µM	11.5 µM	2.68 µM	13.7 µM	0.703 µM	> 100 µM	1.27 µM	> 100 µM	3.43 µM	> 100 µM	2.98 µM	> 100 µM	4.65 µM	> 100 µM	0.61 µM	> 100 µM	1.68 µM	14 µM	1.49 µM	> 100 µM
C=C1C(O)C2CC(C)(C)C(=O)C2=C(CC(C)C)C12CC2 (centres undefined)	> 100 µM	> 100 µM	> 100 µM	> 100 µM	62.4 µM	> 100 µM	> 100 µM	> 100 µM	> 100 µM	> 100 µM	98.1 µM	> 100 µM	72 µM	> 100 µM	> 100 µM	> 100 µM	> 100 µM	> 100 µM	> 100 µM	> 100 µM
N#CC(C#N)=C1CCC2C(=C(C#N)C#N)CCC12 (centres undefined)		> 100 µM		> 100 µM		> 100 µM		> 100 µM		> 100 µM		> 100 µM		> 100 µM		> 100 µM		> 100 µM		> 100 µM
CCC(=C(c1ccc(OCCN2CCCC2)cc1)c1ccc(OCCN2CCCC2)cc1)c1ccc(Cl)cc1	0.688 µM	1.58 µM	0.591 µM	1.1 µM	0.347 µM	1.09 µM	0.54 µM	1.02 µM	0.692 µM	1.57 µM	0.601 µM	1.58 µM	0.592 µM	1.32 µM	0.626 µM	1.21 µM	0.615 µM	1.25 µM	0.524 µM	1.04 µM
O=C(O)c1[nH]c2c([N+](=O)[O-])cc([N+](=O)[O-])cc2c1C(=O)O		> 100 µM		> 100 µM		> 100 µM		> 100 µM		> 100 µM		> 100 µM		> 100 µM		> 100 µM		> 100 µM		> 100 µM
Cc1cn2c(/C=C3\C(=O)N(C)c4ccc(Cl)cc43)c(C)nc2s1	5.6 µM	72 µM	4.92 µM	21.7 µM	0.226 µM	1.52 µM	5.05 µM	> 100 µM	5.5 µM	> 100 µM	2.74 µM	10.1 µM	3.1 µM	15.9 µM	1.29 µM	> 100 µM	3.47 µM	> 100 µM	4.03 µM	> 100 µM
O=C1c2ccccc2C(=O)c2sc(Nc3ccc([N+](=O)[O-])cc3)nc21		27.1 µM		12.3 µM		7.97 µM		4.66 µM		13.7 µM		5.37 µM		7.17 µM		25.8 µM		19 µM		18.9 µM
Cc1ccc(NC(=O)CCC(=O)C2Cc3ccccc3C2=O)cc1C (centres undefined)		> 100 µM		> 100 µM		> 100 µM		> 100 µM		> 100 µM		> 100 µM		> 100 µM		> 100 µM		> 100 µM		> 100 µM
COc1ccc(-c2nnc(Nc3nc(O)c(C4=c5cc(Br)ccc5=NC4=O)s3)o2)cc1	24 µM	> 71.1 µM	25.1 µM	> 77.8 µM	1.6 µM	35.9 µM	19.8 µM	62 µM	19.3 µM	> 76.4 µM	6.79 µM	32.7 µM	3.51 µM	27.6 µM	3.54 µM	23.5 µM	32 µM	> 100 µM	18.4 µM	> 63 µM
CC(=O)c1ccc(Oc2c3ccccc3nc3occc23)cc1	> 100 µM	> 100 µM	33.3 µM	> 100 µM	0.842 µM	> 100 µM	6.35 µM	> 100 µM	3.33 µM	> 100 µM	4.8 µM	> 100 µM	5.71 µM	> 100 µM	9.12 µM	> 100 µM	24.1 µM	> 100 µM	2.39 µM	72.4 µM
O=C(COc1cccc(/C=C2\Oc3ccc4ccccc4c3C2=O)c1)c1ccc([N+](=O)[O-])cc1	38.5 µM	> 100 µM	23.6 µM	62.3 µM	0.305 µM	> 100 µM	7.5 µM	20.5 µM	14.2 µM	37.2 µM	3.96 µM	17.4 µM	13.3 µM	38.6 µM	11.9 µM	26.2 µM	21.8 µM	> 100 µM	12.3 µM	30.9 µM
C=CCC1C(=O)CC2(C)C(CC=C)C(=O)CC12C (centres undefined)		> 100 µM		> 100 µM		> 100 µM		> 100 µM		> 100 µM		> 100 µM		> 100 µM		> 100 µM		> 100 µM		> 100 µM
O=c1[nH]c(=O)n(C2OC(CO)C(O)C2O)cc1F (centres undefined)		8.59 µM	0.0462 µM	21.1 µM	0.0274 µM		0.016 µM	7.18 µM		> 100 µM	0.0369 µM	> 100 µM	0.0428 µM	> 100 µM	0.0267 µM	51.9 µM	0.0447 µM	18.7 µM	0.0207 µM	> 72.5 µM
CCCCC[C@H]1C/C=C2/C(=O)C(Cl)=C[C@@H]2C/C=C\CCCC(=O)O1	0.53 µM	1.15 µM	0.47 µM	0.888 µM	0.122 µM	2.68 µM	0.126 µM	0.449 µM	0.328 µM	1.65 µM	0.113 µM	2.93 µM	0.117 µM	2.98 µM	0.518 µM	1.33 µM	0.438 µM	0.975 µM	0.284 µM	0.895 µM
O=C(O)c1cc(Cl)cc(Cc2cc(Cl)cc(C(=O)O)c2O)c1O		> 100 µM		> 100 µM		> 100 µM		> 100 µM		> 100 µM		> 100 µM		> 100 µM		> 100 µM		> 100 µM		> 100 µM
